In brackets after ≈: the same amount, converted by molar mass. Residues, ends and D or L forms follow the SMILES beside them.
How the values were obtained:
E. coli (O157:H7) = type: cell-based, Escherichia coli
Description: (§1) The MIC of arginine-based peptides was assessed using the microbroth dilution approach. Our in vitro screening included a panel of Gram-negative bacteria, Escherichia coli (ATCC 25922 and enterohaemorrhagic O157:H7) and Pseudomonas aeruginosa (PA01 and the drug-resistant strain NCTC 13437), and Gram-positive bacteria (Staphylococcus aureus ATCC 12600). Five-millilitre overnight cultures in Lysogeny broth, prepared from single isolated colonies, were diluted to 5×10^6 c.f.u. ml^−1 mid-log phase in Mueller–Hinton (MH) broth. Next, peptide concentrations (0 to 1 mM) were serially diluted twofold in 96-well plates and incubated overnight at 37 °C with the tested bacterial strains. In each case, the MIC was determined as the lowest peptide concentration at which no detectable bacterial growth was observed, employing an absorbance-based assay using a Tecan Spark® multimode plate reader. Subsequently, 10 µl aliquots from each peptide dilution were transferred to MH agar (1.5%) plates to determine the minimum bactericidal concentration (MBC) which was assessed by establishing at which concentration no visible growth of bacteria (assessed via colony formation) on the plate was observed.

E. coli (25922) = type: cell-based, Escherichia coli
Description: as §1
(§2) The antimicrobial activity and structural stability of arginine-rich peptides were evaluated in the presence of human serum (20% and 50 %) and 5 µM Sequencing Grade Modified Trypsin (SGMT, Promega). Briefly, fresh human blood was collected in EDTA tubes and allowed to clot at room temperature for 1 h. Serum was then collected following centrifugation at 2,000 r.p.m. for 10 min at 4 °C. Peptides were incubated with 20%, 50% human serum and 5 µM SGMT in 50 mM Tris-HCl buffer (1 mM CaCl₂, pH 7.6) for 24 h at 37 °C. After the incubation period, the solutions were further incubated with E. coli (ATCC 25922 and O157:H7), P. aeruginosa (PA01, NCTC13437) and S. aureus (ATCC12600), and the MIC was assessed as described in the ‘Antibacterial assessment’ section. Additionally, the samples were analysed using electrospray ionization MS to monitor structural changes based on the molecular weight of the peptides.

[1] = biological target: T1, Sequencing Grade Modified Trypsin (Sus scrofa, UniProt P00761); experiment: Stability with trypsin by LC-MS; type: in vitro ADME; conditions: 5 µM SGMT trypsin, 50 mM Tris-HCl, 1 mM CaCl2, pH 7.6, 24 h, 37 °C; read-out LC-MS (ESI)
T1 construct: purchased Promega
T1 sequence (P00761 9-231): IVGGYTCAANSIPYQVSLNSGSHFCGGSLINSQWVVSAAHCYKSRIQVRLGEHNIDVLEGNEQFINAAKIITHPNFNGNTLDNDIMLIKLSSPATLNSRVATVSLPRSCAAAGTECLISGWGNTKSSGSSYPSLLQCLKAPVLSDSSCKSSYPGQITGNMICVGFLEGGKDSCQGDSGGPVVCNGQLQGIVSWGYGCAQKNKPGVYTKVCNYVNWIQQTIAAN
Description: as §2

[2] = Stability in human serum by LC-MS; type: in vitro ADME; conditions: human serum (20% and 50%), 24 h, 37 °C; read-out LC-MS (ESI)
Description: as §2

S. aureus ATCC 12600 = experiment: Membrane integrity, PI uptake; type: cell-based, Staphylococcus aureus; conditions: S. aureus ATCC 12600, 5 µg ml−1 PI, 1 h
Description: Propidium iodide (PI) uptake was used to assess the permeabilization of the bacterial membrane upon incubation with peptides. E. coli and S. aureus cells, adjusted to an OD600 of 0.5, were placed into a 96-well plate containing 5 mM HEPES buffer (pH 7.4, supplemented with 5 mM glucose) and incubated with 5 µg ml^−1 PI for 15 min. Afterwards, different peptide concentrations were added, and PI uptake was rapidly measured every 10 min over a 1 h period using a Tecan Spark® microplate reader (λex=515 nm, λem=620 nm).

E. coli = experiment: Intracellular ROS, DCFH-DA; type: cell-based, Escherichia coli; conditions: peptides at MIC, 1/2× MIC, 1/4× MIC, 4 h, 37 °C
Description: Total reactive oxygen species (ROS) was measured using an oxidation-sensitive fluorescent dye, 2′,7′-dichlorodihydrofluorescein diacetate (DCFH-DA). For this assay, E. coli and S. aureus cultures were adjusted to an OD600 of 0.3 in MH broth and exposed to peptides at MIC, 1/2× MIC and 1/4× MIC, or to positive control (5 mM H2O2) for 4 h at 37 °C. Cells were centrifuged at 4,000 r.p.m. for 10 min at 4 °C and resuspended in PBS containing 10 µM DCFH-DA. The suspension was incubated under the same conditions for 30 min. Finally, cells were washed twice with PBS, and 150 µl aliquots were transferred to 96-well plates. Oxidized DCF products were detected using a Tecan Spark® microplate reader with excitation at 485 nm and emission at 530 nm. Additionally, 10 µl of E. coli cells incubated with D-R4F4 at MIC, 1/2×MIC and 1/4×MIC was collected for imaging using an All-in-One Fluorescence Microscope (Keyence, Japan).

P. aeruginosa (PA01) = experiment: Inhibition of biofilm formation, crystal violet; type: cell-based, Pseudomonas aeruginosa; conditions: P. aeruginosa PA01, M63 medium, peptides 0 to 500 µM, 24 h, 0.1% CV
Description: Arginine-rich peptides were evaluated for their ability to inhibit biofilm formation of P. aeruginosa (PA01) cells. To assess this, the procedure described in the ‘Antibacterial assessment’ section for determining the MIC was adapted using M63 media (supplemented with 1 mM MgSO4 and 23 µM L-arginine). After 24 h of exposure to peptides (0 to 1 mM), flat-bottom 96-well plates were washed twice with PBS to remove any non-adherent cells. The remaining biofilm was stained with 0.1% crystal violet (CV) for 30 min at room temperature. Subsequently, the plates were washed three times to remove excess dye and left to dry overnight at room temperature. The following day, stained biofilms were solubilized using 30% glacial acetic acid, and absorbance was measured at 550 nm using a microplate reader. Biofilm inhibition was expressed as a percentage relative to control bacterial cells treated with PBS.

Structure (SMILES): N=C(N)NCCC[C@@H]1NC(=O)[C@H](CCCNC(=N)N)NC(=O)[C@H](CCCNC(=N)N)NC(=O)[C@H](Cc2ccccc2)NC(=O)[C@H](Cc2ccccc2)NC(=O)[C@H](Cc2ccccc2)NC(=O)[C@H](Cc2ccccc2)NC(=O)[C@H](CCCNC(=N)N)NC1=O [CP-R4F4] (cyclo(RRRRFFFF))
- MBC (E. coli (O157:H7); 10 µl aliquots plated on MH agar, no visible colonies): 62.5 µM (≈ 75.8 µg/mL)
- MIC (E. coli (O157:H7); MH broth, 5×10^6 cells, 24 h, 37 °C, absorbance 600 nm, triplicate): 31.25 µM (≈ 37.9 µg/mL)
- MIC, Control (E. coli (25922); control without serum or trypsin): 31.25 µM (≈ 37.9 µg/mL)
- MIC, Trypsin (E. coli (25922); peptide incubated with 5 µM SGMT trypsin in 50 mM Tris-HCl, 1 mM CaCl2, pH 7.6, 24 h at 37 °C before MIC): 31.25 µM (≈ 37.9 µg/mL)
- MIC, 20% human serum (E. coli (25922); peptide incubated with 20% human serum 24 h at 37 °C before MIC): 31.25 µM (≈ 37.9 µg/mL)
- MIC, 50% human serum (E. coli (25922); peptide incubated with 50% human serum 24 h at 37 °C before MIC): 125 µM (≈ 152 µg/mL)
- Stability with trypsin (LC chromatogram and mass spectrum) [1]: appeared at the same retention time in both the absence and presence of proteases
- Stability with serum proteases (LC chromatogram and mass spectrum) [2]: appeared at the same retention time in both the absence and presence of proteases
- PI uptake, membrane integrity (S. aureus ATCC 12600): membrane-disruptive activity
- Intracellular ROS levels (E. coli): highest modulation of ROS levels
- Biofilm formation (biomass, crystal violet) (P. aeruginosa (PA01)): lowest levels of biofilm formation at the lower concentrations

Reference: article PMC12873548, “D-amino acid substitution and cyclization enhance the stability and antimicrobial activity of arginine-rich peptides” (Microbiology, 2026)
